Source: patent US9856230B2 (University of Sunderland, priority 2012, dated 2018)
Like-named read-outs stand apart in the source and are kept apart here.

Assays:
[1] = biological target: T1, Trx system (thioredoxin/thioredoxin reductase) (Homo sapiens, UniProt Q16881); test: Thioredoxin/thioredoxin reductase insulin reduction assay; type: biochemical; conditions: for inhibition at 500 µM: compound at 500 μM, read-out: Inhib. (%) Trx Syst. at 500 μM
T1 sequence (Q16881 151-649 limits assumed): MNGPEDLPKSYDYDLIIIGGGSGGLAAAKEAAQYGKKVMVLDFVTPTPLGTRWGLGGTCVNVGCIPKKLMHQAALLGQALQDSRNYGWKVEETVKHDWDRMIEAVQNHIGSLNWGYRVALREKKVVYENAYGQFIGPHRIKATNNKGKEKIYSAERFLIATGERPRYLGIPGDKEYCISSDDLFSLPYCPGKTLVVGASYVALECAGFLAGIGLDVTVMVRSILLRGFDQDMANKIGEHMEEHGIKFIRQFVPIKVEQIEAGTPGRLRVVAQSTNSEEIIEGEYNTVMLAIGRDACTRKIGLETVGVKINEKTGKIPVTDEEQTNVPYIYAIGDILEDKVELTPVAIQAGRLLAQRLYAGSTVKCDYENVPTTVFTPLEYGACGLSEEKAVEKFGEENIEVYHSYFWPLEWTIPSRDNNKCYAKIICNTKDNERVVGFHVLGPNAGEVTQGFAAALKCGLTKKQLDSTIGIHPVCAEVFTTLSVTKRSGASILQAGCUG
Procedure: Thioredoxin/thioredoxin reductase inhibition was measured using the insulin reduction assay (Stevens, M. F. G., Pallis, M., Bradshaw, T. D., Westwell, A. D., Grundy, M., Russell, N, “Induction of apoptosis without redox catastrophe by thioredoxin-inhibitory compounds”, Biochem. Pharmacol. (2003) 66, 1695-1705). […] The first part of the assay involves TrxR reducing oxidized Trx via NADPH. The reduced Trx then reduces disulfide bonds in the insulin, leaving exposed thiol groups, as summarized by the Trx reaction scheme.
The addition of dithionitrobenzoic acid (DTNB) to the free thiol groups of the insulin cleaves the disulfide bond in the DTNB which gives rise to a yellow colour (DTNB reaction scheme). The yellow colour is observed under basic conditions due to the conjugation of electrons between the thiolate anion and the nitro group of thionitrobenzoic acid (TNB). The level of thioredoxin/thioredoxin reductase inhibitory activity is […] proportional to the intensity of the yellow colour.
Addition of DTNB to reduced insulin produces thionitrobenzoic acid (TNB) and a mixed insulin disulfide. DTNB has very little absorbance, but under mild basic conditions TNB forms an anion that gives an intense yellow colour at 412 nm.
Synthesized compounds were tested for thioredoxin/thioredoxin reductase activity using the thioredoxin/thioredoxin reductase insulin assay described above under the heading “Assays”. The compounds were also tested for antiproliferative activity using the MTT assay described above under the heading “Assays”. Theoretical C log P values for the compounds were calculated using ChemDraw. The C log P of a compound is the logarithm of the compound's partition coefficient between n-octanol and water log(coctanol/cwater) and represents a measure of the compound's hydrophilicity and hydrophobicity. […]

[2] = system: HPV-16 immortalized keratinocyte cell line (CCD-1106 KERTr); test: cells; type: cell-based; conditions: Homo sapiens;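 further: growth inhibition read as spectrophotometric formazan colour from mitochondrial dehydrogenase cleavage of MTT, proportional to viable cell number, modelling psoriatic hyperproliferation, lower values mean stronger antiproliferative activity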
Description: The assay is based on the ability of a mitochondrial dehydrogenase enzyme to cleave the tetrazolium rings of the yellow MTT to form dark blue formazan crystals (MTT reaction scheme). These crystals are mostly impermeable to cell membranes and, consequently, they accumulate in healthy viable cells. The addition of detergent solubilizes the cells, which results in the liberation of purple formazan crystals. The number of viable cells is directly proportional to the level of purple formazan produced. This colour change can be measured by a spectrophotometer enabling quantification of changes in cellular proliferation. Compound activity measured by the MTT assay (or other proliferation related assay) may be given as a GI50 value.
A human papilloma virus-16 (HPV-16) immortalized keratinocyte cell line (CCD-1106 KERTr) was used in the MTT cell viability assay.
Antiproliferative activity is indicated by the MTT GI50 (μM), where a lower value indicates higher activity.

[3] = insulin reduction assay, read-out: Trx System IC50
[4] = CCD-1106 KERTr keratinocytes, read-out: MTT GI50

Row | Structure (SMILES) | inhibition at 500 µM [1] [%] | IC50 [1, 3] [µM] | GI50 [2, 4] [µM] | IC50 [1] [µM] | GI50 ([2]; CCD-1106, read-out: MTT GI50 (μM)) [µM] | IC50 ([2]; CCD-1106, read-out: IC50 in MTT assay (antiproliferative activity)) [µM]
1 | COC(=O)c1ccc(NS(=O)(=O)c2ccc(C)cc2)c(NS(=O)(=O)c2ccc(C)cc2)c1 [(12), methyl 3,4-diamino-N,N-bis-(toluene-4-sulfonylamino)benzoate] | 30 | 1360 | 4.1 | – | – | –
2 | COC(=O)c1ccc(NS(=O)(=O)c2ccc([N+](=O)[O-])cc2)c(NS(=O)(=O)c2ccc([N+](=O)[O-])cc2)c1 [(19a), methyl 3,4-bis-(4-nitrobenzenesulfonylamino)benzoate] | 53.3 | – | – | 475 | 11.2 | –
3 | COC(=O)c1ccc(NS(=O)(=O)c2ccc(C(F)(F)F)cc2)c(NS(=O)(=O)c2ccc(C(F)(F)F)cc2)c1 [(19b), methyl 3,4-bis-(4-trifluoromethylbenzenesulfonylamino)benzoate] | 33.4 | 429 | 5.4 | – | – | –
4 | COC(=O)c1ccc(NS(=O)(=O)c2ccc(OC(F)(F)F)cc2)c(NS(=O)(=O)c2ccc(OC(F)(F)F)cc2)c1 [(19c), methyl 3,4-bis-(4-trifluoromethoxybenzenesulfonylamino)benzoate] | 43.7 | 546 | 2.2 | – | – | –
5 | COC(=O)c1ccc(NS(=O)(=O)c2ccc(OC)cc2)c(NS(=O)(=O)c2ccc(OC)cc2)c1 [(19d), methyl 3,4-bis-(4-methoxybenzenesulfonylamino)benzoate] | 14.6 | – | 5.2 | – | – | –
6 | COC(=O)c1ccc(NS(=O)(=O)c2ccc(N)cc2)c(NS(=O)(=O)c2ccc(N)cc2)c1 [(19e), methyl 3,4-bis-(4-aminobenzenesulfonylamino)benzoate] | 86.7 | 386 | > 420 | – | – | –
7 | Cc1ccc(S(=O)(=O)Nc2ccc(C#N)cc2NS(=O)(=O)c2ccc(C)cc2)cc1 [(21b), 3,4-bis-(toluene-4-sulfonylamino)benzonitrile] | 58.4 | – | 4.7 | – | – | –
8 | Cc1ccc(S(=O)(=O)Nc2ccc(C(=N)NO)cc2NS(=O)(=O)c2ccc(C)cc2)cc1 [(21c), N-hydroxy-3,4-bis-(toluene-4-sulfonylamino)benzamidine] | 32.4 | – | 108 | – | – | –
9 | Cc1ccc(S(=O)(=O)Nc2ccc(-c3noc(C(C)C)n3)cc2NS(=O)(=O)c2ccc(C)cc2)cc1 [(21d), 1-(5′-isopropyl-1′,2′,4′-oxadiazol-3-yl)-3,4-bis-(toluene-4-sulfonylamino)benzene] | 13.9 | – | 3.2 | – | – | –
10 | COC(=O)c1ccc(NS(=O)(=O)c2ccc(Cl)s2)c(NS(=O)(=O)c2ccc(Cl)s2)c1 [(25), methyl 3,4-bis-(5-chloro-thiophene-2-sulfonylamino)benzoate] | 61 | – | 1.2 | – | – | –
11 | COC(=O)c1ccc(NS(=O)(=O)c2ccc(Cl)cc2)c(NS(=O)(=O)c2ccc(Cl)cc2)c1 [(27), methyl 3,4-bis-(4-chlorobenzenesulfonylamino)benzoate] | 62.3 | 277 | 0.64 | – | – | –
12 | Cc1ccc(S(=O)(=O)Nc2ccc(C(=O)NC(C)(C)C)cc2NS(=O)(=O)c2ccc(C)cc2)cc1 [(28), N-tert-butyl-3,4-bis-(toluene-4-sulfonylamino)benzamide] | 10 | – | 5.1 | – | – | –
13 | Cc1ccc(S(=O)(=O)Nc2ccc(C(N)=O)cc2NS(=O)(=O)c2ccc(C)cc2)cc1 [(29), 3,4-bis-(toluene-4-sulfonylamino)benzamide] | 19.9 | – | 104 | – | – | –
14 | Cc1ccc(S(=O)(=O)Nc2ccc(CN)cc2NS(=O)(=O)c2ccc(C)cc2)cc1 [(30), 3,4-bis(toluene-4-sulfonylamino)benzyl amine] | 98.7 | 377 | 162 | – | – | –
15 | CC(C)=CCN(CC=C(C)C)Cc1ccc(NS(=O)(=O)c2ccc(C)cc2)c(NS(=O)(=O)c2ccc(C)cc2)c1 [(31), [3,4-bis-(toluene-4-sulfonylamino)benzyl]bis-(3-methyl-but-2-enyl)amine] | 70 | – | 7.9 | – | – | –
16 | CCOC(=O)CN(CC(=O)OCC)Cc1ccc(NS(=O)(=O)c2ccc(C)cc2)c(NS(=O)(=O)c2ccc(C)cc2)c1 [(32), ethyl {[3,4-bis-(toluene-4-sulfonylamino)benzyl]-ethoxycarbonylmethyl-amino}acetate] | 58.1 | – | 9 | – | – | –
17 | Cc1ccc(S(=O)(=O)Nc2ccc(N)cc2NS(=O)(=O)c2ccc(C)cc2)cc1 [(33b), 3,4-bis(toluene-4-sulfonylamino)phenyl amine] | 31.6 | – | 48.9 | – | – | –
18 | Cc1ccc(S(=O)(=O)Nc2ccc(NS(N)(=O)=O)cc2NS(=O)(=O)c2ccc(C)cc2)cc1 [(33c), 3,4-bis(toluene-4-sulfonylamino)phenylsulfamide] | 38.6 | – | 114 | – | – | –
19 | CCNC(=O)Nc1ccc(NS(=O)(=O)c2ccc(C)cc2)c(NS(=O)(=O)c2ccc(C)cc2)c1 [(33d), ethyl [3,4-bis(toluene-4-sulfonylamino)]phenyl urea] | 88.3 | – | 55.9 | – | – | –
20 | Cc1ccc(S(=O)(=O)Nc2ccc(NC(=O)Nc3ccccc3)cc2NS(=O)(=O)c2ccc(C)cc2)cc1 [(33e), phenyl [3,4-bis(toluene-4-sulfonylamino)]phenyl urea] | 0 | – | 6.2 | – | – | –
21 | Cc1ccc(S(=O)(=O)Nc2ccc(C(=O)O)cc2NS(=O)(=O)c2ccc(C)cc2)cc1 [(35), 3,4-bis-(toluene-4-sulfonylamino)benzoic acid] | 20 | – | 67.3 | – | – | –
22 | Cc1ccc(S(=O)(=O)Nc2ccc(CO)cc2NS(=O)(=O)c2ccc(C)cc2)cc1 [(36), (3,4-bis-(toluene-4-sulfonylamino)phenyl)methanol] | 50 | – | 19.1 | – | – | –
23 | Cc1ccc(S(=O)(=O)Nc2ccc(C=O)cc2NS(=O)(=O)c2ccc(C)cc2)cc1 [(37), 3,4-bis-(toluene-4-sulfonylamino)benzaldehyde] | 81 | 374 | 12 | – | – | –
24 | C=CC(=O)Nc1ccc(NS(=O)(=O)c2ccc(C)cc2)c(NS(=O)(=O)c2ccc(C)cc2)c1 [(39), N-[3,4-bis-(toluene-4-sulfonylamino)-phenyl]acrylamide] | 73.9 | 156 | 18.8 | – | – | –
25 | Cc1ccc(S(=O)(=O)Nc2ccc(NC(=O)Cn3ccc(=O)[nH]c3=O)cc2NS(=O)(=O)c2ccc(C)cc2)cc1 [(42), N-[3,4-bis-(toluene-4-sulfonylamino)phenyl]-2-(2,4-dioxo-3,4-dihydro-2H-pyrimidin-1-yl)acetamide] | 70.7 | 339 | 100 | – | – | –
26 | Cc1ccc(S(=O)(=O)Nc2ccc(-c3ccc(F)c(C#N)c3)cc2NS(=O)(=O)c2ccc(C)cc2)cc1 [(53), 3′,4′-bis-(toluene-4-sulfonylamino)-4-fluorobiphenyl-3-carbonitrile] | 71.1 | 106 | 0.156 | – | – | –
27 | Cc1ccc(S(=O)(=O)Nc2ccc(NC(=O)c3cccs3)cc2NS(=O)(=O)c2ccc(C)cc2)cc1 [(55), N-(3,4-bis-(toluene-4-sulfonylamino)phenyl)-2-thiophenecarboxamide] | 61.5 | 494 | 3.3 | – | – | –
28 | O=C(Nc1ccc(NS(=O)(=O)c2ccc(F)cc2)c(NS(=O)(=O)c2ccc(F)cc2)c1)c1ccco1 [Compound (103)] | – | – | – | – | – | 36.2
